Measured values from PubChem BioAssay AID1745844 (Carcinogenic Potency Database (CPDB), 2022).
The source made the active and inactive calls. How the calls were made is not given here.

Test system: rodent lifetime carcinogenesis bioassay, tumor incidence TD50
Assay: chronic cancer bioassays in animals – CPDB, compiled studies (AID 1745844)

ClC1=C(Cl)C2(Cl)C3C(Cl)OC(Cl)C3C1(Cl)C2(Cl)Cl (centres undefined)
carcinogen call (mouse, strain B6AKF1, females, oral dosing, site: any site (literature study), lesion: several types, types named in the paper, dosed 76 weeks, study length 76 weeks): negative (inactive)
carcinogen call (mouse, strain B6AKF1, females, oral dosing, site: liver, lesion: hepatoma, dosed 76 weeks, study length 76 weeks): negative (inactive)
carcinogen call (mouse, strain B6AKF1, females, oral dosing, site: lung, lesion: adenoma, dosed 76 weeks, study length 76 weeks): negative (inactive)
TD50 (mouse, strain B6AKF1, males, oral dosing, site: any site (literature study), lesion: several types, types named in the paper, dosed 76 weeks, study length 76 weeks): 0.136 mg/kg/day (inactive)
carcinogen call (mouse, strain B6AKF1, males, oral dosing, site: liver, lesion: hepatoma, dosed 76 weeks, study length 76 weeks): negative (inactive)
TD50 (mouse, strain B6AKF1, males, oral dosing, site: lung, lesion: adenoma, dosed 76 weeks, study length 76 weeks): 0.146 mg/kg/day (inactive)
TD50 (mouse, strain B6C3F1, females, oral dosing, site: any site (literature study), lesion: several types, types named in the paper, dosed 76 weeks, study length 76 weeks): 0.277 mg/kg/day (inactive)
carcinogen call (mouse, strain B6C3F1, females, oral dosing, site: liver, lesion: hepatoma, dosed 76 weeks, study length 76 weeks): negative (inactive)
TD50 (mouse, strain B6C3F1, females, oral dosing, site: lung, lesion: adenoma, dosed 76 weeks, study length 76 weeks): 0.571 mg/kg/day (inactive)
TD50 (mouse, strain B6C3F1, males, oral dosing, site: any site (literature study), lesion: several types, types named in the paper, dosed 76 weeks, study length 76 weeks): 0.242 mg/kg/day (inactive)
TD50 (mouse, strain B6C3F1, males, oral dosing, site: liver, lesion: hepatoma, dosed 76 weeks, study length 76 weeks): 0.5 mg/kg/day (inactive)
TD50 (mouse, strain B6C3F1, males, oral dosing, site: lung, lesion: adenoma, dosed 76 weeks, study length 76 weeks): 0.5 mg/kg/day (inactive)

CNCCc1ccc(OC(=O)C(C)C)c(OC(=O)C(C)C)c1
carcinogen call (rat, strain Charles River CD (Sprague-Dawley), females, by gavage, site: adrenal gland, lesion: cortical adenoma, dosed 104 weeks, study length 104 weeks): negative (inactive)
carcinogen call (rat, strain Charles River CD (Sprague-Dawley), females, by gavage, site: adrenal gland, lesion: pheochromocytoma, malignant, dosed 104 weeks, study length 104 weeks): negative (inactive)
carcinogen call (rat, strain Charles River CD (Sprague-Dawley), females, by gavage, site: mammary gland, lesion: adenocarcinoma, dosed 104 weeks, study length 104 weeks): negative (inactive)
carcinogen call (rat, strain Charles River CD (Sprague-Dawley), females, by gavage, site: mammary gland, lesion: adenoma, dosed 104 weeks, study length 104 weeks): negative (inactive)
carcinogen call (rat, strain Charles River CD (Sprague-Dawley), females, by gavage, site: pituitary gland, lesion: adenoma, dosed 104 weeks, study length 104 weeks): negative (inactive)
carcinogen call (rat, strain Charles River CD (Sprague-Dawley), males, by gavage, site: adrenal gland, lesion: cortical adenoma, dosed 104 weeks, study length 104 weeks): negative (inactive)
carcinogen call (rat, strain Charles River CD (Sprague-Dawley), males, by gavage, site: adrenal gland, lesion: pheochromocytoma, malignant, dosed 104 weeks, study length 104 weeks): negative (inactive)
TD50 (rat, strain Charles River CD (Sprague-Dawley), males, by gavage, site: pituitary gland, lesion: adenoma, dosed 104 weeks, study length 104 weeks): 30.2 mg/kg/day (inactive)

CN(N=O)C(=O)NCCC[C@H](N)C(=O)O
TD50 (rat, strain Wistar albino, females, i.p., site: kidney, lesion: epithelial neoplasm, dosed 26 weeks, study length 52 weeks): 0.633 mg/kg/day
TD50 (rat, strain Wistar albino, females, i.p., site: kidney, lesion: mesenchymal neoplasm, dosed 26 weeks, study length 52 weeks): 0.633 mg/kg/day
carcinogen call (rat, strain Wistar albino, females, i.p., site: mammary tissue, wider than the gland, lesion: several types, types named in the paper, dosed 26 weeks, study length 52 weeks): positive
TD50 (rat, strain Wistar albino, females, i.p., site: pancreas, lesion: adenocarcinoma in adenomatous polyp, dosed 26 weeks, study length 52 weeks): 11 mg/kg/day
TD50 (rat, strain Wistar albino, females, i.p., site: skin, lesion: neoplasm, dosed 26 weeks, study length 52 weeks): 1.42 mg/kg/day
TD50 (rat, strain Wistar albino, males, i.p., site: Zymbal's gland, lesion: carcinoma, dosed 26 weeks, study length 52 weeks): 11.8 mg/kg/day
TD50 (rat, strain Wistar albino, males, i.p., site: kidney, lesion: epithelial neoplasm, dosed 26 weeks, study length 52 weeks): 1.04 mg/kg/day
TD50 (rat, strain Wistar albino, males, i.p., site: kidney, lesion: mesenchymal neoplasm, dosed 26 weeks, study length 52 weeks): 1.57 mg/kg/day
TD50 (rat, strain Wistar albino, males, i.p., site: pancreas, lesion: adenocarcinoma, dosed 26 weeks, study length 52 weeks): 11 mg/kg/day
TD50 (rat, strain Wistar albino, males, i.p., site: pancreas, lesion: several types, types named in the paper, dosed 26 weeks, study length 52 weeks): 5.25 mg/kg/day
TD50 (rat, strain Wistar albino, males, i.p., site: skin, lesion: neoplasm, dosed 26 weeks, study length 52 weeks): 1.04 mg/kg/day

ClC(Cl)C(Cl)Cl
TD50 (mouse, strain B6C3F1, females, by gavage, site: any site (literature study), lesion: several types, types named in the paper, dosed 78 weeks, study length 92 weeks): 37.2 mg/kg/day
TD50 (mouse, strain B6C3F1, females, by gavage, site: liver, lesion: hepatocellular adenoma + hepatocellular carcinoma + neoplastic nodule, dosed 78 weeks, study length 92 weeks): 35.4 mg/kg/day
TD50 (mouse, strain B6C3F1, females, by gavage, site: liver, lesion: hepatocellular carcinoma, dosed 78 weeks, study length 91 weeks): 35.8 mg/kg/day
TD50 (mouse, strain B6C3F1, females, by gavage, site: liver, lesion: hepatocellular carcinoma, dosed 78 weeks, study length 92 weeks): 35.4 mg/kg/day
TD50 (mouse, strain B6C3F1, females, by gavage, site: lung, lesion: alveolar/bronchiolar adenoma + alveolar/bronchiolar carcinoma, dosed 78 weeks, study length 92 weeks): 1910 mg/kg/day
TD50 (mouse, strain B6C3F1, males, by gavage, site: any site (literature study), lesion: several types, types named in the paper, dosed 78 weeks, study length 92 weeks): 38.7 mg/kg/day
TD50 (mouse, strain B6C3F1, males, by gavage, site: liver, lesion: hepatocellular adenoma + hepatocellular carcinoma + neoplastic nodule, dosed 78 weeks, study length 92 weeks): 41.6 mg/kg/day
TD50 (mouse, strain B6C3F1, males, by gavage, site: liver, lesion: hepatocellular carcinoma, dosed 78 weeks, study length 91 weeks): 45.4 mg/kg/day
TD50 (mouse, strain B6C3F1, males, by gavage, site: liver, lesion: hepatocellular carcinoma, dosed 78 weeks, study length 92 weeks): 41.6 mg/kg/day
TD50 (mouse, strain B6C3F1, males, by gavage, site: lung, lesion: alveolar/bronchiolar adenoma + alveolar/bronchiolar carcinoma, dosed 78 weeks, study length 92 weeks): 895 mg/kg/day
TD50 (rat, strain Osborne-Mendel, females, by gavage, site: any site (literature study), lesion: several types, types named in the paper, dosed 77 weeks, study length 110 weeks): 84.2 mg/kg/day (inactive)
carcinogen call (rat, strain Osborne-Mendel, males, by gavage, site: any site (literature study), lesion: several types, types named in the paper, dosed 77 weeks, study length 110 weeks): negative (inactive)
TD50 (rat, strain Osborne-Mendel, males, by gavage, site: liver, lesion: hepatocellular adenoma + hepatocellular carcinoma + neoplastic nodule, dosed 77 weeks, study length 110 weeks): 624 mg/kg/day
